Measured values as given in US7482339B2, “2-Naphthylimino-1,3-thiazine derivative” (Shionogi and Co., Ltd., priority 2003, dated 2009).
Read-outs that look alike come from different tables or passages of the source.

Tests used:
human CB1R [1] = target: T1, human CB1R (Homo sapiens, UniProt P21554); experiment: Human CB receptor binding inhibition ([3H]CP55940), CB1R; details: membranes of CB1R-expressing CHO cells, 0.5 nM [3H]CP55940, 2 hr at 25° C.; read-out: CB receptor binding inhibition Ki CB1
T1 construct: expressed in transfected cells; host or cells: CHO cells (crude membrane fractions)
T1 sequence (P21554 whole entry): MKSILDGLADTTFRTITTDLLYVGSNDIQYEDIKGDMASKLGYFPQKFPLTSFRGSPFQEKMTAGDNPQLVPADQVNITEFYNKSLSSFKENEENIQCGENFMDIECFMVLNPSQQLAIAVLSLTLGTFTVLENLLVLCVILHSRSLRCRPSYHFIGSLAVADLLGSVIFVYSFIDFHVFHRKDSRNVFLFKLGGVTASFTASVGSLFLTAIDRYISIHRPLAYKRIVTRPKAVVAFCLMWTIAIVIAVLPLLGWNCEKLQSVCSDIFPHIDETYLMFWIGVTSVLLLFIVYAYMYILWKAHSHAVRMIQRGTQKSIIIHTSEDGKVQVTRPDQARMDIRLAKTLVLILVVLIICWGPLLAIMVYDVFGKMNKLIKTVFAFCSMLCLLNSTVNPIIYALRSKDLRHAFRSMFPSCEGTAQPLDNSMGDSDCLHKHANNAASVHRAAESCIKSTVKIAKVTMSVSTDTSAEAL
Experimental: (§1) The crude membrane fractions were then prepared from the CB1R or CB2R-expressing CHO cells. Receptor binding assay was performed by incubating the membranes with each test compound and 38,000 dpm [^3H]CP55940 (at a final concentration of 0.5 nM: PerkinElmer Life & Analytical Sciences) in the assay buffer (50 mM Tris-HCl, […], 3 mM MgCl2, pH 7.4) containing 0.5% bovine serum albumin (BSA) for 2 hr at 25° C. The incubation mixture was filtered through 1% polyethylenimine (PEI)-treated GF/C glass filter and washed with 50 mM Tris-HCl (pH 7.4) containing 0.1% BSA. The radioactivity was then counted with a liquid scintillation counter. Nonspecific binding was determined in the presence of 10 μM WIN55212-2 (a CBR agonist described in the patent U.S. Pat. No. 508,122, Sigma), and the specific binding was calculated by subtracting the nonspecific binding from the total binding. The IC50 value for each test compound was determined as the concentration at which 50 % of the specific binding was inhibited. As a consequence of these studies, the Ki values of each test compound were determined from the IC50 value and the Kd vale of [^3H]CP55940.

human CB2R [2] = target: T2, human CB2R (Homo sapiens, UniProt P34972); experiment: Human CB receptor binding inhibition ([3H]CP55940), CB2R; details: membranes of CB2R-expressing CHO cells, 0.5 nM [3H]CP55940, 2 hr at 25° C.; read-out: CB receptor binding inhibition Ki CB2
T2 construct: expressed in transfected cells; host or cells: CHO cells (crude membrane fractions)
T2 sequence (P34972 whole entry): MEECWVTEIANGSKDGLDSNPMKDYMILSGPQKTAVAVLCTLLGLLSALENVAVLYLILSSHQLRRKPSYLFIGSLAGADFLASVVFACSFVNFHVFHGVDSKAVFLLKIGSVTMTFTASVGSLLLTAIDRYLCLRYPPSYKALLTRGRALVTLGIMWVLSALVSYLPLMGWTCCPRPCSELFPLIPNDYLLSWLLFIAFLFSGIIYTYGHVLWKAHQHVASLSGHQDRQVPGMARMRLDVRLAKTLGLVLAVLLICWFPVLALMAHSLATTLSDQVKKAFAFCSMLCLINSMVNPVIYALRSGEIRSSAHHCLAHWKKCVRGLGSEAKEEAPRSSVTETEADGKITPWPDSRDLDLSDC
Experimental: as §1

[3] = system: formalin-induced hyperalgesia in ICR mice; experiment: Inhibitory effect against formalin-induced hyperalgesia in ICR mice; type: in vivo; details: Mus musculus, male ICR mice, oral administration 2 h prior to formalin
Experimental: The inhibitory effects of the compounds of the present invention against formalin-induced hyperalgesia were examined in male ICR mice (5 W). Test compounds were dissolved in sesami oil and applied orally 2 h prior to the subcutaneous formalin injection (2% 20 μL) into the right hind paw. In this experiment, observation period was set to 30 min and divided into two parts, the first 5 minutes immediately after the formalin injection (first phase) and 10 to 30 min minutes after the formalin injection (second phase). The strength for pain sensation was evaluated by the total time for licking and biting behavior. The inhibitory effect of the test compounds on such behavior was evaluated and the ED50 value was calculated.

human CB1R [4] = target: T1, human CB1R; experiment: CBR-mediated suppression of forskolin-stimulated cAMP synthesis, CHO cells expressing CB1R; type: cell-based; details: 4 μM forskolin, read-out: Inhibition of cAMP synthesis IC50 CB1
Experimental: (§2) The CHO cells expressing human CB1R or CB2R were incubated with test compounds for 15 min. After the incubation, 4 μM forskolin (Sigma) was added and the cells were incubated for 20 min. The reaction was stopped by the addition of 1N HCl and the amount of cAMP in the cell supernatant was measured using an Cyclic AMP kit (CIS bio international) according to the manufacture's protocol. The cAMP amount increased by forskolin compared to that in the absence of forskolin was defined as 100%, and the IC50 value of each test compound was determined as the concentration at which 50% of the forskolin-stimulated cAMP synthesis was inhibited.

[5] = system: compound 48/80-induced pruritus in ICR strain mice; experiment: Inhibitory effect on compound 48/80-induced pruritus in ICR strain mice; type: in vivo; details: Mus musculus, po, 0.5 h; female ICR strain mice, orally administered once, scratching counted for 30 min; read-out: anti-pruritic effect ED50
Experimental: The experiment was carried out by the method of Inagaki et al. (Eur J Pharmacol 1999;367:361-371) with some modifications. Briefly, the back of female ICR strain mice was clipped, and compound 48/80 (3 μg/50 μL/site) was injected intradermally to elicit the response. The number of scratching behavior to the injection site by hind paws, which was observed immediately after the injection, was counted for 30 min. Test compounds, dissolved in sesame oil, were orally administered once. […] the injection of compound 48/80 at pre-determine time when the maximal plasma concentration of the compound was obtained. The inhibitory effect against pruritus was evaluated by comparing the number of scratching in the compound-administered group with that in the vehicle-administered group, and then ED50 value was calculated.

human CB2R [6] = target: T2, human CB2R; experiment: CBR-mediated suppression of forskolin-stimulated cAMP synthesis, CHO cells expressing CB2R; type: cell-based; details: 4 μM forskolin, read-out: Inhibition of cAMP synthesis IC50 CB2
Experimental: as §2

[7] = 10 to 30 min after formalin injection, read-out: Inhibitory effect against formalin-induced hyperalgesia (ED50) Second phase
[8] = first 5 minutes after formalin injection, read-out: Inhibitory effect against formalin-induced hyperalgesia (ED50) First phase

Row | Structure (SMILES) | melting point | Ki (human CB1R [1]) | Ki (human CB2R [2]) | ED50 [3, 7] | ED50 [3, 8] | IC50 (human CB1R [4]) | ED50 [5] | IC50 (human CB2R [6])
1 | CCCC1(CCC)CSC(=Nc2cccc3ccccc23)N(C(=S)SC)C1 [Compound I-22] | 139 to 140.5 °C | 20 nM | 1.5 nM |  |  |  |  | 
2 | CSC(=S)N1CC2(CCCCC2)CSC1=Nc1cccc2ccccc12 [Compound I-23, 3-[(methylthio)thiocarbonyl]-2-(1-naphthylimino)-5,5-pentamethylene-1,3-thiazine] | 118 to 119 °C | 29.6 nM | 6 nM | 1 mg/kg | 1.5 mg/kg | 10.4 nM | 0.54 mg/kg | 1.7 nM
3 | CCCC1(CCC)CSC(=Nc2cccc3ccccc23)N(C(=O)SC)C1 [Compound I-25] | 108.5 to 109.5 °C | 42.5 nM | 1 nM |  |  |  |  | 
4 | CSC(=S)N1CC(C(C)C)(C(C)C)CSC1=Nc1cccc2ccccc12 [Compound I-27] | 121 to 122 °C | 13 nM | 0.3 nM |  |  | 8.1 nM |  | 
5 | C=CCC1(CC=C)CSC(=Nc2cccc3ccccc23)N(C(=S)SC)C1 [Compound I-28] |  | 31.4 nM | 4.8 nM |  |  |  |  | 
6 | CSC(=O)N1CC(C(C)C)(C(C)C)CSC1=Nc1cccc2ccccc12 [Compound I-29] | 98 to 99 °C | 6 nM | 1.7 nM | 3.5 mg/kg | 3.6 mg/kg | 17.5 nM |  | 
7 | CSC(=S)N1CC2(CCCCC2)CSC1=Nc1ccc(Cl)c2ccccc12 [Compound I-33] | 181 to 182 °C | 20.7 nM | 1.2 nM |  |  |  |  | 
8 | CSC(=S)N1CC(C(C)C)(C(C)C)CSC1=Nc1ccc(N(C)C)c2ccccc12 [Compound I-43, 3-[(methylthio)thiocarbonyl]-2-(4-dimethylamino-1-naphthylimino)-5,5-diisopropyl-1,3-thiazine] |  | 21.4 nM | 11.3 nM |  |  |  |  | 
9 | CSC(=S)N1CC(C(C)C)(C(C)C)CSC1=Nc1cccc2cc(OCC(=O)OC(C)(C)C)ccc12 [Compound I-77] |  | 35 nM | 1.5 nM |  |  |  |  | 
10 | CSC(=S)N1CC(C(C)C)(C(C)C)CSC1=Nc1ccc(Cl)c2ccccc12 [Compound I-113] | 86.5 to 87.5 °C | 10 nM | 0.9 nM |  |  | 13 nM |  | 1.5 nM
11 | CSC(=O)N1CC(C(C)C)(C(C)C)CSC1=Nc1ccc(Cl)c2ccccc12 [Compound I-114] | 111.5 to 112.5 °C | 25 nM | 5.9 nM |  |  | 24 nM |  | 48 nM
12 | CSC(=S)N1CC2(CCCCC2)CSC1=Nc1ccc(F)c2ccccc12 [Compound I-140] | 139 to 140 °C | 59 nM | 0.8 nM |  |  | 27 nM |  | 
13 | CSC(=S)N1CC(C(C)C)(C(C)C)CSC1=Nc1ccc(F)c2ccccc12 [Compound I-142] | 118 to 119 °C | 20 nM | 1.2 nM |  |  | 14 nM |  | 
14 | CSC(=O)N1CC(C(C)C)(C(C)C)CSC1=Nc1ccc(F)c2ccccc12 [Compound I-143] | 109 to 110 °C | 29 nM | 1.4 nM |  |  | 35 nM |  | 
15 | CSC(=S)N1CC2(CCCCC2)CSC1=Nc1ccc(C#N)c2ccccc12 [Compound I-144] | 164 to 165 °C | 54 nM | 1 nM |  |  | 52 nM |  | 
